Here are results for 17 compounds from patent US20100075907A1, “NEUROMEDIN U RECEPTOR AGONISTS AND USES THEREOF” (priority 2006, published 2010).

Non-standard residues stand in square brackets, D forms with d. Residues, ends and D or L forms follow the SMILES beside them. No end group written: not given here. hArg = N=C(N)NCCCC[C@H](N)C(=O)O; dNle = CCCC[C@@H](N)C(=O)O Bounds are passed on as bounds.

The IC50 is the concentration needed to halve the response being measured. A high value points to a need for much substance. Usually EC50 stands for the concentration giving half of the maximal effect.

One test has as its target T1, hNMUR1 (Homo sapiens, UniProt Q9HB89).
T1 sequence (Q9HB89 1-426): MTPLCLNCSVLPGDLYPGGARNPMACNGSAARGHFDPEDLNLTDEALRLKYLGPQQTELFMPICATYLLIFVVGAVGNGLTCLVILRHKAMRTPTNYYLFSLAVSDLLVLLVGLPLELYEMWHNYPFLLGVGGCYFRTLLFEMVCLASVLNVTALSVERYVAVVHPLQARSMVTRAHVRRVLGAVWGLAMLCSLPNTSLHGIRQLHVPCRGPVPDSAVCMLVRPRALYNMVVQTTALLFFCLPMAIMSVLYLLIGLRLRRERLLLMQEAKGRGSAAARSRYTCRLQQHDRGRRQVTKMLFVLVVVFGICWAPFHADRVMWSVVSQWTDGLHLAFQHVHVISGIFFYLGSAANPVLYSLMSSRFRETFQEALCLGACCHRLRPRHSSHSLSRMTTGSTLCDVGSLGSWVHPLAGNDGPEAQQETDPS
The test can be described thus: In vitro functional assay, HEK-hR1 cells. In kind it is cell-based. Also noted: expressed in transfected cells; host or cells: FLP-In CHO or HEK-293 FLP-In cells (pcDNA5); HEK-293/aeq17 lines (pIRES-puro) were also made. To be noted: Table 8, HEK-hR1, functional. The text has this:
Human, mouse or rat cDNAs encoding NMUR1 or NMUR2 (as described in Howard et al. Nature 406: 70-74 (2000) were subcloned in pcDNA5 (Invitrogen) and transfected into FLP-In CHO cells and HEK-293 FLP-In cells purchased from Invitrogen (Carlsbad, Calif.) using lipofectamine (Invitrogen). The Flp-In system allows integration and expression of a particular gene of interest at a specific genomic location utilizing the Flp recombinase from yeast. The transfected cells were selected by growth in medium containing 200 μg/mL hygromycin (Invitrogen). Populations were frozen at early passage numbers, and these stocks were used for further studies. Stable clones that expressed the mRNAs were identified functionally by FLIPR as well as by RT-PCR. […] Two different rodent NMUR1 cell lines were thus generated: one with the codon as predicted from the genomic databases and another cell line with an engineered methionine (ATG) as the start codon. Additionally, stable cell lines expressing the human receptors were generated in HEK-293/aeq17 cells which stably express the aequorin gene under the CMV promoter. The human NMUR2 cDNA was cloned into pcDNA3.1 and human NMUR1 was subcloned into pIRES-puro (Clontech, Mountain View, Calif.), after transfection cells were selected in media containing G418 and either hygromycin (NMUR2) or puromycin (NMUR1).
The NMU receptors signal primarily through Gαq/11 proteins; therefore calcium mobilization assays can be utilized for functional activity.
Stable cell lines expressing human and or rodent NMUR1 or human NMUR2 receptors were plated at a density of 12,000 cells per well overnight on poly-lysine coated 384-well black-walled plates. The following day, the media was removed from the plates and the cells were subsequently loaded with Fluo-3 (Molecular Probes), a calcium sensitive dye, diluted in FLIPR buffer (1× Hank's buffered saline containing 20 mM HEPES, 0.1% BSA, 2.5 mM probenecid (Sigma) and 1.6 mM TR40). All reagents are from Invitrogen unless otherwise noted. Peptide stocks were resuspended in DMSO at a stock concentration of 2 mM and diluted in FLIPR buffer on the day of the experiment to a 4 μM working stock solution.
After a 90 minute incubation at room-temperature, cell plates were loaded onto a FLIPR (Molecular Devices) to monitor cellular fluorescence (excitation=488 nm; emission=540 nm) before and after compound/peptide addition. Eight to twelve point dose responses were tested on NMUR-expressing cell lines using FLIPR with 1 μM peptide as the highest dose. The response after peptide addition was taken as the maximum fluorescence units minus the fluorescence immediately prior to stimulation for each well. EC50 values were calculated using GraphPad Prism (San Diego, Calif.) software.
In addition to FLIPR, NMU receptor function can also be evaluated using an aequorin assay. Stable cell lines expressing the aequorin jelly fish gene can be used to report the activation of GPCRs by monitoring intracellular calcium mobilization. The objective is to identify compounds which specifically stimulate aequorin bioluminescence. Calcium-dependent luminescence is generated by the treatment of cells with the coelenterate luciferin, coelenterazine. Briefly, confluent monolayers of HEK-293/aeq 17 cells expressing hNMUR1 or hNMUR2 are “charged” with coelenterazine (Molecular Probes, Carlsbad, Calif.). Confluent T75 flasks are rinsed with media containing 300 μM glutathione and 0.1% FBS. Cells are incubated at 37° C. for one hour in 8 mL media, 0.1% FBS, 300 μM glutathione, and 20 μM coelenterazine. T75 flasks are subsequently rinsed with 6 mL ECB buffer (140 mM NaCl, 20 mM KCl, 20 mM HEPES, 5 mM glucose, 1 mM MgCl, 1 mM CaCl2, 0.1 mg/mL BSA, PH 7.3-7.4). Cells are removed from the flask in ECB buffer, pelleted, and resuspended at a density of 2×10^5 cells/mL. Agonists are added to the cells and activity is determined using a luminometer. […]
As to `CC(=O)N[C@@H](Cc1ccccc1)C(=O)N[C@H](CC(C)C)C(=O)N[C@@H](Cc1c[nH]c2ccccc12)C(=O)N[C@@H](CCCNC(=N)N)C(=O)N1CCC[C@H]1C(=O)N[C@@H](CCCNC(=N)N)C(=O)N[C@@H](CC(N)=O)C(N)=O` [Agonist E, Ac-F-(D-L)-WRPRN-CONH2] (Ac-F[dL]WRPRN-NH2), the “% Activity” value is 100%.
H-YFGWRPRN-NH2 [Agonist C]: the “% Activity” value came to 87% and half-maximal inhibition (IC50) was put at 1.1 nM.
On to “H-FRVDEEFQSPFASQSRGYFWRPRN-NH2 [Agonist G]”, for which the “% Activity” value is 91%.
As for “Ac-FFRPRN-NH2 [Agonist F, Ac-FFRPRN-CONH2]”, the “% Activity” value is on record as 96% and the IC50 worked out at 42 nM.
With YFWRPRN-NH2 [Agonist A, YFWRPRN-CONH2], the “% Activity” value is reported as 92% and the 50% inhibitory concentration (IC50) amounted to 2.7 nM.
Take `CC(C)C[C@@H](NC(=O)[C@H](Cc1ccccc1)NC(=O)[C@H](Cc1ccc(O)cc1)NC(=O)CNC(=O)[C@H](CCCNC(=N)N)NC(=O)[C@H](CO)NC(=O)[C@H](CCC(N)=O)NC(=O)[C@H](CO)NC(=O)[C@H](C)NC(=O)[C@H](Cc1ccccc1)NC(=O)[C@@H]1CCCN1C(=O)[C@H](CO)NC(=O)[C@H](CCC(N)=O)NC(=O)[C@H](Cc1ccccc1)NC(=O)[C@H](CCC(=O)O)NC(=O)[C@H](CCC(=O)O)NC(=O)[C@H](CC(=O)O)NC(=O)[C@@H](NC(=O)[C@H](CCCNC(=N)N)NC(=O)[C@@H](N)Cc1ccccc1)C(C)C)C(=O)N[C@@H](Cc1c[nH]c2ccccc12)C(=O)N[C@@H](CCCNC(=N)N)C(=O)N1CCC[C@H]1C(=O)N[C@@H](CCCNC(=N)N)C(=O)N[C@@H](CC(N)=O)C(N)=O` [Agonist H] (H-FRVDEEFQSPFASQSRGYF[dL]WRPRN-NH2; N-terminus assumed): the “% Activity” value stood at 88% and the 50% inhibitory concentration (IC50) is 19 nM.
`C[C@@H](NC(=O)[C@H](Cc1ccccc1)NC(=O)[C@@H](N)Cc1ccc(O)cc1)C(=O)N[C@@H](Cc1c[nH]c2ccccc12)C(=O)N[C@@H](CCCNC(=N)N)C(=O)N1CCC[C@H]1C(=O)N[C@@H](CCCNC(=N)N)C(=O)N[C@@H](CC(N)=O)C(N)=O` [Agonist D, YF-(D-A)-WRPRN-CONH2] (H-YF[dA]WRPRN-NH2; N-terminus assumed): the “% Activity” value was determined as 96%.
In the case of `CC(C)C[C@@H](NC(=O)[C@H](Cc1ccccc1)NC(=O)[C@@H](N)Cc1ccc(O)cc1)C(=O)N[C@@H](Cc1c[nH]c2ccccc12)C(=O)N[C@@H](CCCNC(=N)N)C(=O)N1CCC[C@H]1C(=O)N[C@@H](CCCNC(=N)N)C(=O)N[C@@H](CC(N)=O)C(N)=O` [Agonist B, YF-(D-L)-WRPRN-CONH2] (H-YF[dL]WRPRN-NH2), the “% Activity” value was determined as 103%.

Still in this test, the particulars now being: Table 9, HEK-hR1, functional.
For the compound `CC(C)C[C@H](NC(=O)[C@H](Cc1c[nH]c2ccccc12)NC(=O)[C@H](Cc1ccccc1)NC(=O)CNC(=O)[C@H](CCCNC(=N)N)NC(=O)[C@H](CO)NC(=O)[C@H](CCC(N)=O)NC(=O)[C@H](CO)NC(=O)[C@H](C)NC(=O)[C@H](Cc1ccccc1)NC(=O)[C@@H]1CCCN1C(=O)[C@H](CO)NC(=O)[C@H](CCC(N)=O)NC(=O)[C@H](Cc1ccccc1)NC(=O)[C@H](CCC(=O)O)NC(=O)[C@H](CCC(=O)O)NC(=O)[C@H](CC(=O)O)NC(=O)[C@@H](NC(=O)[C@H](CCCNC(=N)N)NC(=O)[C@@H](N)Cc1ccccc1)C(C)C)C(=O)N[C@@H](Cc1ccccc1)C(=O)N[C@@H](CCCNC(=N)N)C(=O)N[C@@H](C)C(=O)N[C@@H](CCCCNC(=N)N)C(=O)N[C@@H](CC(N)=O)C(N)=O` [Agonist P] (H-FRVDEEFQSPFASQSRGFWLFRA[hArg]N-NH2; N-terminus assumed), the “% Activity” value was 11%.
As for `CCCC[C@@H](NC(=O)[C@H](CCCNC(=N)N)NC(=O)[C@@H]1CCCN1C(=O)[C@H](CCCNC(=N)N)NC(=O)[C@H](Cc1ccccc1)NC(=O)[C@H](CC(C)C)NC(=O)[C@H](Cc1c[nH]c2ccccc12)NC(=O)[C@H](Cc1ccccc1)NC(=O)CNC(=O)[C@H](CCCNC(=N)N)NC(=O)[C@H](CO)NC(=O)[C@H](CCC(N)=O)NC(=O)[C@H](CO)NC(=O)[C@H](C)NC(=O)[C@H](Cc1ccccc1)NC(=O)[C@@H]1CCCN1C(=O)[C@H](CO)NC(=O)[C@H](CCC(N)=O)NC(=O)[C@H](Cc1ccccc1)NC(=O)[C@H](CCC(=O)O)NC(=O)[C@H](CCC(=O)O)NC(=O)[C@H](CC(=O)O)NC(=O)[C@@H](NC(=O)[C@H](CCCNC(=N)N)NC(=O)[C@@H](N)Cc1ccccc1)C(C)C)C(N)=O` [Agonist Q] (H-FRVDEEFQSPFASQSRGFWLFRPR[dNle]-NH2), the “% Activity” value came out at 0% and the EC50 is over 1000 nM.
With `CC(C)C[C@H](NC(=O)[C@H](Cc1ccccc1)NC(=O)[C@@H](N)Cc1ccc(O)cc1)C(=O)N[C@@H](Cc1ccccc1)C(=O)N[C@@H](CCCNC(=N)N)C(=O)N1CCC[C@H]1C(=O)N[C@@H](CCCNC(=N)N)C(=O)N[C@@H](CC(N)=O)C(N)=O` [NMU-8, reference compound], the “% Activity” value is listed as 100%.
For the compound `CC(C)C[C@H](NC(=O)[C@H](Cc1c[nH]c2ccccc12)NC(=O)[C@@H](N)Cc1ccccc1)C(=O)N[C@@H](Cc1ccccc1)C(=O)N[C@@H](CCCNC(=N)N)C(=O)N[C@@H](C)C(=O)N[C@@H](CCCCNC(=N)N)C(=O)N[C@@H](CC(N)=O)C(N)=O` [Agonist J, FWLFRA-(Harg)-N-CONH2] (H-FWLFRA[hArg]N-NH2), the “% Activity” value amounted to 0% and the concentration for a half-maximal effect (EC50) is over 1000 nM.
Turning to H-FWLFRARN-NH2 [Agonist L], the “% Activity” value is recorded as 74% and the EC50 is over 1000 nM.
Regarding WALFRARN-NH2 [Agonist M], the “% Activity” value worked out at 0% and the EC50 is over 1000 nM.
As to “H-FRVDEEFQSPFASQSRGYFLFRPRN-NH2 [hNMU-25, reference compound]”, the “% Activity” value turned out to be 100% and a half-maximal response (EC50) required 5.5 nM.
As for FALFRPRN-NH2 [Agonist N], the “% Activity” value came out at 87%.
In the case of `CC(C)C[C@H](NC(=O)[C@H](Cc1c[nH]c2ccccc12)NC(=O)[C@@H](N)Cc1ccccc1)C(=O)N[C@@H](Cc1ccccc1)C(=O)N[C@@H](CCCNC(=N)N)C(=O)N1CCC[C@H]1C(=O)N[C@@H](CCCCNC(=N)N)C(=O)N[C@@H](CC(N)=O)C(N)=O` [Agonist I, FWLFRP-(Harg)-N-CONH2] (H-FWLFRP[hArg]N-NH2), the “% Activity” value was 7% and the concentration for a half-maximal effect (EC50) is over 1000 nM.
